According to ChEMBL document CHEMBL6114961, “Novel isoxazole thiophene-containing compounds active against Mycobacterium tuberculosis” (Bioorg Med Chem Lett, 2025):
pEC50, pIC50: −log10 of the molar value. Values after ≈ are worked out from the molar mass of the structure shown.

Assays:
[1] = tested on: Mycobacterium tuberculosis; assay: Antituberculosis activity against Mycobacterium tuberculosis H37Rv infected in human THP-1 cells assessed as reduction in bacterial growth pre-infected with bacteria for 24 hrs followed by compound addition and measured 3 days by luminescence based intramacrophage assay; assay type: functional, organism-based
[2] = tested on: HepG2; assay: Cytotoxicity against human HepG2 cells measured after 3 days by Cell Titer-Glo Luminescent Cell Viability Assay; assay type: functional; settings: HepG2, 72 h, time 3 day
[3] = tested on: Mycobacterium tuberculosis; assay: Antituberculosis activity against Mycobacterium tuberculosis H37Rv assessed as reduction in bacterial growth measured after 7 days using 7H9 broth by Alamar blue staining based analysis; assay type: functional; settings: 168 h, time 7 day
[4] = Selectivity index, ratio of CC50 for Cytotoxicity against human HepG2 cells to MIC for antituberculosis activity against Mycobacterium tuberculosis H37Rv assessed as reduction in bacterial growth; assay type: toxicity, cell-based, Hep G2; settings: read-out: Selectivity Index
[5] = Metabolic stability in mouse liver microsomes assessed as intrinsic clearance; assay type: ADME, Microsome; settings: read-out: CLH
[6] = Plasma protein binding in mouse assessed as unbound fraction; assay type: ADME, cell-free
[7] = Apparent permeability in human Caco-2 cells across apical to basolateral side; assay type: ADME, cell-based
[8] = Apparent permeability in human Caco-2 cells across basolateral side to apical side; assay type: ADME, cell-based
[9] = target: Cytochrome P450 3A4 (Homo sapiens, UniProt P08684); assay: Inhibition of CYP3A4 (unknown origin); assay type: ADME
[10] = target: T1, Cytochrome P450 1A2 (Homo sapiens, UniProt P05177); assay: Inhibition of CYP1A2 (unknown origin); assay type: ADME
T1 sequence (P05177 whole entry): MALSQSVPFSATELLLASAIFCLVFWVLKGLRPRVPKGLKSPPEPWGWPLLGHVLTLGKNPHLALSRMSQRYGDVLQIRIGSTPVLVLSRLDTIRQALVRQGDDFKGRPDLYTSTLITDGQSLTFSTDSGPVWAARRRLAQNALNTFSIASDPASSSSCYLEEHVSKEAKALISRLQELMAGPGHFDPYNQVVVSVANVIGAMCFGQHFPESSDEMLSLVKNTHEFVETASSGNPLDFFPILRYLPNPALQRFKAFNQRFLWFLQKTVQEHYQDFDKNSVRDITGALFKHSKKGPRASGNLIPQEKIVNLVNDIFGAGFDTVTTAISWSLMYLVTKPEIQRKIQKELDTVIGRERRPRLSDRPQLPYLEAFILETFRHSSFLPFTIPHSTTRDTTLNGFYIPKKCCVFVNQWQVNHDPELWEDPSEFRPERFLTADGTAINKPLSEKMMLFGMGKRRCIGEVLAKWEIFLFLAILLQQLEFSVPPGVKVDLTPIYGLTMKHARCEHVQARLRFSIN

[11] = target: Cytochrome P450 2D6 (Homo sapiens, UniProt P10635); assay: Inhibition of CYP2D6 (unknown origin); assay type: ADME
[12] = target: Cytochrome P450 2C19 (Homo sapiens, UniProt P33261); assay: Inhibition of CYP2C19 (unknown origin); assay type: ADME
[13] = target: Cytochrome P450 2C9 (Homo sapiens, UniProt P11712); assay: Inhibition of CYP2C9 (unknown origin); assay type: ADME
[14] = target: Voltage-gated inwardly rectifying potassium channel KCNH2 (Homo sapiens, UniProt Q12809); assay: Inhibition of human ERG; assay type: toxicity
[15] = Cmax in male CD-1 mouse at 20 mg/kg, po; assay type: ADME, organism-based; settings: in vivo
[16] = Tmax in male CD-1 mouse at 20 mg/kg, po; assay type: ADME, organism-based; settings: in vivo
[17] = Half life in male CD-1 mouse at 20 mg/kg, po; assay type: ADME, organism-based; settings: in vivo
[18] = MRT (0 tot 24 hrs) in male CD-1 mouse at 20 mg/kg, po; assay type: ADME, organism-based; settings: in vivo
[19] = AUC (0 tot 24 hrs) in male CD-1 mouse at 20 mg/kg, po; assay type: ADME, organism-based; settings: in vivo
[20] = Oral bioavailability in male CD-1 mouse at 20 mg/kg; assay type: ADME, organism-based; settings: in vivo
[21] = AUC (0 tot 24 hrs) in male CD-1 mouse at 3 mg/kg, iv; assay type: ADME, organism-based; settings: in vivo
[22] = Plasma concentration in male CD-1 mouse at 20 mg/kg, po measured for 14 hrs; assay type: ADME, organism-based
[23] = tested on: Mycobacterium tuberculosis; assay: Bactericidal activity against non-replicating Mycobacterium tuberculosis Hu-Coates model assessed as reduction in CFU at 20 uM; assay type: functional
[24] = tested on: Mycobacterium tuberculosis; assay: Bactericidal activity against non-replicating Mycobacterium tuberculosis Hu-Coates model assessed as reduction in CFU at 20 uM in presence of BPaL; assay type: functional
[25] = Plasma concentration in male CD-1 mouse at 20 mg/kg, po measured for 6 hrs; assay type: ADME, organism-based

Chain of Cytochrome P450 2C19 (P33261 whole entry): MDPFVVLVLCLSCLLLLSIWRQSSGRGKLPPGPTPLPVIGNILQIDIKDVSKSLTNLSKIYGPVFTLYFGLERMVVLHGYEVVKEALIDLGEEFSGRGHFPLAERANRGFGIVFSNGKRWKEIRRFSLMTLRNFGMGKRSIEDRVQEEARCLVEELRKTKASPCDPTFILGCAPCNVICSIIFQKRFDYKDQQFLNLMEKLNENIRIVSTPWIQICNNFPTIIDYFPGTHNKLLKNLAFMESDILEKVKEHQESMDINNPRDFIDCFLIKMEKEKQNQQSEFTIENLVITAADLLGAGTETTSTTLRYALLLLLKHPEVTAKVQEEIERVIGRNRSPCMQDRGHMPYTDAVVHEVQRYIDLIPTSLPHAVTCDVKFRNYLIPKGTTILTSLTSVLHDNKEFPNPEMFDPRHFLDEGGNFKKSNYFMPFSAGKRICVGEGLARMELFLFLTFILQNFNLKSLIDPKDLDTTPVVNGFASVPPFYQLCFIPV
Chain of Voltage-gated inwardly rectifying potassium channel KCNH2 (Q12809 whole entry): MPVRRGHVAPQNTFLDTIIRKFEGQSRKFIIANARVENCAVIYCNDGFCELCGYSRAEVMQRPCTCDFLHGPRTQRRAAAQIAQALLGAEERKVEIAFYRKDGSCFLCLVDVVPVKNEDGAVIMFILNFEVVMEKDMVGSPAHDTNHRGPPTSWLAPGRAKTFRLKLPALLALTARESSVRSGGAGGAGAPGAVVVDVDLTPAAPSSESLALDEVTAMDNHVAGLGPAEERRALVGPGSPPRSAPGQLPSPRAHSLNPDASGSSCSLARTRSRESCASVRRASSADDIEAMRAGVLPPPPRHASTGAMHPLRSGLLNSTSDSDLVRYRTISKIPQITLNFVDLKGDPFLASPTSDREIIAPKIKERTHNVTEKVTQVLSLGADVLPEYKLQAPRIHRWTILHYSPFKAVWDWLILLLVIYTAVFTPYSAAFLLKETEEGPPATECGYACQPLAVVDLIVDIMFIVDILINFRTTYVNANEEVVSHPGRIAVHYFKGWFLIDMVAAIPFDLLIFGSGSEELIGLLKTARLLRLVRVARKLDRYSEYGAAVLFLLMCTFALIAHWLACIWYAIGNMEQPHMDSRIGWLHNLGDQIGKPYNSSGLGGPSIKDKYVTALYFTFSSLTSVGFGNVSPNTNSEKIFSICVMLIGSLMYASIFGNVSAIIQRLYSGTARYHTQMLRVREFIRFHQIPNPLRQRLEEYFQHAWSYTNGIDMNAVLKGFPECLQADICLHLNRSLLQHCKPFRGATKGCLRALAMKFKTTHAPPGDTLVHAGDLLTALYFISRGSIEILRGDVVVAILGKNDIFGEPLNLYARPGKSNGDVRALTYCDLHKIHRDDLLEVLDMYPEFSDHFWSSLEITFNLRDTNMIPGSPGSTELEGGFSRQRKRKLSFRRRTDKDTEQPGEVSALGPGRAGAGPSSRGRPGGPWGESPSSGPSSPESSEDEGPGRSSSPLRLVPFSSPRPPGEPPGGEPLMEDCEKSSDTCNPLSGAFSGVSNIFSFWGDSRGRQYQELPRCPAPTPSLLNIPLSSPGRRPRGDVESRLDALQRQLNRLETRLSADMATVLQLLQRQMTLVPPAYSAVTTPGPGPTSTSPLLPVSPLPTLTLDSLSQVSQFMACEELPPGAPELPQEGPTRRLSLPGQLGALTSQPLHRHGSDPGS
Chain of Cytochrome P450 2C9 (P11712 whole entry): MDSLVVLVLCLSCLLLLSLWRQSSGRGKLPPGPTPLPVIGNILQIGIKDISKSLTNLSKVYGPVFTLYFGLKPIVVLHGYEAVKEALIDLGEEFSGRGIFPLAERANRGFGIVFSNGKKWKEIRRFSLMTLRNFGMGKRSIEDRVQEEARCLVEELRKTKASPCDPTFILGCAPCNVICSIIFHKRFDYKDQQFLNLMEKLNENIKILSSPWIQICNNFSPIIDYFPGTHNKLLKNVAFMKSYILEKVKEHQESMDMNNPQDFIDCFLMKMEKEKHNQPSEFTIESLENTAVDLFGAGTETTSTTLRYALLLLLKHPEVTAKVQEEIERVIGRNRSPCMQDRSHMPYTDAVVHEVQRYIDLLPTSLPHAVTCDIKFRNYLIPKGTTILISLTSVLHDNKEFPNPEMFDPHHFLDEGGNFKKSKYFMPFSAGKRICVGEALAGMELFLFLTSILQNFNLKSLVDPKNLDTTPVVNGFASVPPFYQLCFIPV
Chain of Cytochrome P450 3A4 (P08684 whole entry): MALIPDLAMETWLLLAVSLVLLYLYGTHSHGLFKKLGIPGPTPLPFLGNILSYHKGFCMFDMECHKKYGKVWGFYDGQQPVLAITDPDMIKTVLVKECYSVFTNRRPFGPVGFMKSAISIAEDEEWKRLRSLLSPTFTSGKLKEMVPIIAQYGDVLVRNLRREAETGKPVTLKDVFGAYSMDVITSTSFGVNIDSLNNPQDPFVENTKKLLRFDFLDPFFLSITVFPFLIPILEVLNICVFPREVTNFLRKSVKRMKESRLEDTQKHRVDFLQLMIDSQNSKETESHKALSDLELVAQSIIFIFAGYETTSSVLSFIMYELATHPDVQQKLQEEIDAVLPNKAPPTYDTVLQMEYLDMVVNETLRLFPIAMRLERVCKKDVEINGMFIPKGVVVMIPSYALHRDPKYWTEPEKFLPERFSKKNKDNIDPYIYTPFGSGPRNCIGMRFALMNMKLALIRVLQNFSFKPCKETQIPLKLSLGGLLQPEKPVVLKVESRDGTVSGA
Chain of Cytochrome P450 2D6 (P10635 whole entry): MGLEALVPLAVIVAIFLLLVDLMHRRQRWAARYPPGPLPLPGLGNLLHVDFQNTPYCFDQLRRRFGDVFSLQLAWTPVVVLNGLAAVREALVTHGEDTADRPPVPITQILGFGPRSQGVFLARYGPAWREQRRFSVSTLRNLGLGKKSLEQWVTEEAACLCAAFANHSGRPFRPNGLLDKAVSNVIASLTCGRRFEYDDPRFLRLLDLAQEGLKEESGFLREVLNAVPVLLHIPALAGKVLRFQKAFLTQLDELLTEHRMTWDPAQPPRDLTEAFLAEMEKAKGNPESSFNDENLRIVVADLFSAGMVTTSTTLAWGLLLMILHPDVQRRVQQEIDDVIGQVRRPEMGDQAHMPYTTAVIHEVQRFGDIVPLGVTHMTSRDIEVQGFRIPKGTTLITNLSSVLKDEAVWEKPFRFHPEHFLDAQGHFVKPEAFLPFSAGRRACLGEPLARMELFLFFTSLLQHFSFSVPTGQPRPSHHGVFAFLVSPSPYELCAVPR

O=S(=O)(Nc1cc(-c2ccsc2)no1)C1CCOC1 (stereo unspecified)
pEC50 [1]: < 4.60
CC50 [2]: > 40 µM

O=S(=O)(Nc1cc(-c2ccsc2)no1)c1c(F)cccc1F
pEC50 [1]: 4.86
CC50 [2]: > 40 µM

O=S(=O)(Nc1cc(-c2csc(C(F)(F)F)c2)no1)c1ccccc1F
pEC50 [1]: < 4.60
CC50 [2]: > 40 µM

O=S(=O)(Nc1cc(-c2ccsc2)no1)c1cccc(F)c1
pEC50 [1]: 4.61
CC50 [2]: > 40 µM

Cc1cc(-c2cc(NS(=O)(=O)c3ccccc3F)on2)c(C)s1
pEC50 [1]: 4.61
CC50 [2]: > 40 µM

CN(c1cc(-c2ccsc2)no1)S(=O)(=O)c1ccccc1F
pEC50 [1]: 4.90
CC50 [2]: > 40 µM

O=S(=O)(Nc1cc(-c2ccsc2)no1)c1ccc2c(c1)CC2
pEC50 [1]: 5.44
CC50 [2]: > 40 µM

O=S(=O)(Nc1cc(-c2ccsc2)no1)c1ccccc1
pEC50 [1]: < 4.60
CC50 [2]: > 40 µM

O=S(=O)(Nc1cc(-c2ccsc2)no1)c1cccc(F)c1F
pEC50 [1]: < 4.60
CC50 [2]: > 40 µM

CC1(C)COCCC1S(=O)(=O)Nc1cc(-c2ccsc2)no1 (stereo unspecified)
pEC50 [1]: < 4.60
CC50 [2]: > 40 µM

O=S(=O)(Nc1cc(-c2ccsc2)no1)c1ccccc1Cl
pEC50 [1]: 4.83
CC50 [2]: > 40 µM

O=S(=O)(Nc1cc(-c2ccsc2)no1)c1cc(F)ccc1F
pEC50 [1]: < 4.60
CC50 [2]: > 40 µM

O=S(=O)(Nc1cc(-c2ccsc2)no1)c1ccc(F)cc1F
pEC50 [1]: 4.60
CC50 [2]: > 40 µM

O=S(=O)(Nc1cc(-c2ccsc2)no1)C1CCC(F)(F)CC1
pEC50 [1]: < 4.60
CC50 [2]: > 40 µM

O=S(=O)(Nc1cc(-c2ccsc2)no1)c1ccc2c(c1)CCC2
pEC50 [1]: 4.60
CC50 [2]: > 40 µM

O=S(=O)(CC1CCOCC1)Nc1cc(-c2ccsc2)no1
pEC50 [1]: < 4.60
CC50 [2]: > 40 µM

O=S(=O)(Nc1noc(-c2ccsc2)n1)C1CCOCC1
pEC50 [1]: < 4.60

O=S(=O)(Nc1cc(-c2ccsc2)no1)C1CCCCC1
pEC50 [1]: 4.60
CC50 [2]: > 40 µM

O=C(Nc1cc(-c2ccsc2)no1)c1ccccc1F
pEC50 [1]: 4.64
CC50 [2]: > 40 µM

O=S(=O)(Nc1cc(-c2ccsc2)no1)c1cccnc1F
pEC50 [1]: < 4.60
CC50 [2]: > 40 µM

O=S(=O)(Nc1cc(-c2cscn2)no1)C1CCOCC1
pEC50 [1]: < 4.60
CC50 [2]: > 40 µM

O=S(=O)(Nc1cc(-c2ccoc2)no1)C1CCOCC1
pEC50 [1]: < 4.60
CC50 [2]: > 40 µM

O=S(=O)(Nc1cc(-c2ccsn2)no1)C1CCOCC1
pEC50 [1]: < 4.60
CC50 [2]: > 25 µM

O=S(=O)(Nc1cc(-c2ccsc2)no1)c1ccccc1F
pEC50 [1]: 5.53
CC50 [2]: > 40 µM
MIC90 [3]: 1.24 µM (≈ 0.402 µg/mL)
selectivity ratio [4]: > 32
microsomal CLint [5]: 5.6 µL/min/mg
fraction unbound [6]: 0.996
Papp A→B [7]: 3.6 ×10⁻⁶ cm/s
Papp B→A [8]: 27.3 ×10⁻⁶ cm/s
pIC50 [9]: < 4.30
pIC50 [10]: < 4.30
pIC50 [11]: < 4.30
pIC50 [12]: 4.55
pIC50 [13]: 5.49
pIC50 [14]: < 4.52
Cmax [15]: 64200 ng/mL
Tmax [16]: 40.2 min
half-life [17]: 110 min
MRT last at 24 h [18]: 3.44 h
AUC(0-t) at 24 h [19]: 4450 ng·h/mL
bioavailability [20]: 78%
AUC [21]: 50981 ng·min/mL
concentration at 14 h [22]: 949 ng/mL
Activity [23]: 1.02 log10CFU
Activity [24]: 3 log10CFU

O=S(=O)(Nc1cc(-c2csc(Cl)c2)no1)C1CCOCC1
pEC50 [1]: < 4.60
CC50 [2]: > 40 µM

O=S(=O)(Nc1cc(-c2ccsc2)no1)C1CCNCC1
pEC50 [1]: < 4.60
CC50 [2]: > 40 µM

O=S(=O)(Nc1cc(-c2cccnc2)no1)c1ccccc1F
pEC50 [1]: 4.61
CC50 [2]: > 40 µM

O=S(=O)(Nc1cc(-c2ccsc2)no1)c1c(F)cc(F)cc1F
pEC50 [1]: < 4.60
CC50 [2]: > 40 µM

O=S(=O)(Nc1cc(-c2cccs2)no1)C1CCOCC1
pEC50 [1]: < 4.60
CC50 [2]: > 40 µM

O=S(=O)(Nc1cc(-c2ccsc2)no1)C1CCOCC1
pEC50 [1]: 5.71
CC50 [2]: > 40 µM
microsomal CLint [5]: 0.2 µL/min/mg
fraction unbound [6]: 0.845
Cmax [15]: 24200 ng/mL
Tmax [16]: 40.2 min
half-life [17]: 131 min
MRT last at 24 h [18]: 1.7 h
AUC(0-t) at 24 h [19]: 713 ng·h/mL
bioavailability [20]: 58%
AUC [21]: 11076 ng·min/mL
concentration at 6 h [25]: 613 ng/mL
